Results reported in publication PMC9894920, “Development of an improved and specific inhibitor of NADPH oxidase 2 to treat traumatic brain injury” (Redox Biology, 2023).
Values after ≈ are worked out from the molar mass of the structure shown. Where two headings read alike, the source gives them in different places.

Assays:
[1] = Parallel artificial membrane permeability assay (PAMPA); format: in vitro ADME; details: for Papp: pH 7.4, PAMPA, pH7.4, read-out: Permeability(pH7.4) (PAMPA_Pion_Lipid 1e-6 cm/s)
Procedure: (§1) The rat liver microsomal stability, parallel artificial membrane permeability assay (PAMPA), and aqueous kinetic solubility assay in phosphate-buffered saline (PBS) buffer were performed as described in the indicated references.

[2] = Rat liver microsomal stability; format: in vitro ADME; details: for half-life: SD, rat, liver microsomes, read-out: Rat_SD/Microsomes t1/2 (m)
Procedure: as §1

Bovine Xanthine Oxidase = target: T1, Bovine Xanthine Oxidase (Bos taurus, UniProt P80457); assay: Xanthine oxidase / hypoxanthine luminol chemiluminescence assay; format: biochemical; details: xanthine oxidase with hypoxanthine; mean ± SD, n in cell; read-out: X/XO IC50
T1 construct: purchased Sigma
T1 sequence (P80457 whole entry): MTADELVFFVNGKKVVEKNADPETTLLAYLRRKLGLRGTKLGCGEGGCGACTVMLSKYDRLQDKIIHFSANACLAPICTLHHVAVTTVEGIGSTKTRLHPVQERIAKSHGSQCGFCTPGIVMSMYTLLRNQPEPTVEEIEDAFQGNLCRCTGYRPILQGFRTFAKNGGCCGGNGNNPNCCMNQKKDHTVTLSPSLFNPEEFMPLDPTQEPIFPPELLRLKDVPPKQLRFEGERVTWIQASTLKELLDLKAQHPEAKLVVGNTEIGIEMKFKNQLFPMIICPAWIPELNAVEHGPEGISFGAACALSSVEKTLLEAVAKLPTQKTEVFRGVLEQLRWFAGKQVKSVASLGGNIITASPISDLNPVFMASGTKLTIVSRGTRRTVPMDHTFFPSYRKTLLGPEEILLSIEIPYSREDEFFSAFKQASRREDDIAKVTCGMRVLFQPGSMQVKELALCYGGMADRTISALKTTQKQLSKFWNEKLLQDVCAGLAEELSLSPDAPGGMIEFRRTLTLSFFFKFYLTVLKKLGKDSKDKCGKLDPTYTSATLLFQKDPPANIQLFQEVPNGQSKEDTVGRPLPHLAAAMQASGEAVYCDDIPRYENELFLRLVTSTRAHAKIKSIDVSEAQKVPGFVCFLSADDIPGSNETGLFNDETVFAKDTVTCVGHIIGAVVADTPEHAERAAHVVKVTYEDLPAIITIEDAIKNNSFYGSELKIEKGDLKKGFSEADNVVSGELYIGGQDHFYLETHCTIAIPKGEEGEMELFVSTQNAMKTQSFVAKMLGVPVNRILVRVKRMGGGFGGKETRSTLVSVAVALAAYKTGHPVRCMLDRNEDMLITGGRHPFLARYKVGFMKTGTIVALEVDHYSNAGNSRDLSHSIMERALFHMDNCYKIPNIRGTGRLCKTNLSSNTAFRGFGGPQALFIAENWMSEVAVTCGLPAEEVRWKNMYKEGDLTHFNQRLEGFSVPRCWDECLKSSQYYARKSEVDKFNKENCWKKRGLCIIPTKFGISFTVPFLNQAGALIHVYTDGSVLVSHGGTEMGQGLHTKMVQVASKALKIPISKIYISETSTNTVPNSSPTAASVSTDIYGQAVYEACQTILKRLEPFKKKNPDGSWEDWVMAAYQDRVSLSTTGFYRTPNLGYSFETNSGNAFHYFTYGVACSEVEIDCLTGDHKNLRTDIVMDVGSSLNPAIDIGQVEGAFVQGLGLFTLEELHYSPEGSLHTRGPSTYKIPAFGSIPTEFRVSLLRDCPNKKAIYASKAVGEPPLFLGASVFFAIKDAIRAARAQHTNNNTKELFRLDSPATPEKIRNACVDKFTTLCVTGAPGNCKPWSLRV
Procedure: Bovine Xanthine Oxidase (Sigma) was dialyzed in PBS to remove ammonium sulfate and stored at 4 °C. Hypoxanthine was prepared by heating in DMSO. Reactions were prepared by diluting xanthine oxidase in HBSS (final concentration 1.25 mU/mL) that contained 50 μM luminol and were preincubated 5 min with control or inhibitor before the addition of hypoxanthine at a final concentration of 0.5 mM. Luminescence was measured at 24 °C as described above.

[3] = Aqueous kinetic solubility in PBS buffer; format: physicochemical
Procedure: as §1

NOX2 = target: T2, NOX2 (Homo sapiens, UniProt P04839); assay: NOX2 activity in primary human granulocytes (PMN), luminol chemiluminescence; format: cell-based; parameters: When tested against NOX2 in primary human neutrophils; endogenous in cells; host or cells: primary human granulocytes (PMN) from donor blood; details: mean ± SD, n in cell; read-out: NOX-2 IC50 from PMN
T2 sequence (P04839 2-570 limits assumed): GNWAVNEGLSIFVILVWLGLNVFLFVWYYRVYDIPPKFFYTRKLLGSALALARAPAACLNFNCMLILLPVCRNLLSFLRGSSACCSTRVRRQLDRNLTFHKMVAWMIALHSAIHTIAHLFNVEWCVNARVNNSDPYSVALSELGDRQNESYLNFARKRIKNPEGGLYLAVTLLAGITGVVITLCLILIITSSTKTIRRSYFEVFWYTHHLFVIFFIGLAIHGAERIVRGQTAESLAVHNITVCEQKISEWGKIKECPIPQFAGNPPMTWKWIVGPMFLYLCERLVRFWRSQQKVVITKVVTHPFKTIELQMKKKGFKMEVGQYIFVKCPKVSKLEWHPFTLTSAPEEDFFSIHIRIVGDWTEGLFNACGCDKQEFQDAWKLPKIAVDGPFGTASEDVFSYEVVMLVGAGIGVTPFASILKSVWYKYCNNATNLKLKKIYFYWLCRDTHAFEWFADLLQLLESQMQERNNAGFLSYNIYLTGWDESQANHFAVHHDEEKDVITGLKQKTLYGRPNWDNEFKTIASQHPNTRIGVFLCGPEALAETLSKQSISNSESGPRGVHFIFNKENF
T2 sequence (P13498 2-195 partner limits assumed): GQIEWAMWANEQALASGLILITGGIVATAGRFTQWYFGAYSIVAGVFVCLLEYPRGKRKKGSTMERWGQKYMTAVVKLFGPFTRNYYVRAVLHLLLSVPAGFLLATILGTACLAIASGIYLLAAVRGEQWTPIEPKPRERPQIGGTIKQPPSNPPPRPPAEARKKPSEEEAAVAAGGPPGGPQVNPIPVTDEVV
Procedure: Human blood was obtained after informed consent by the Department of Transfusion Medicine (NIH Clinical Center) and provided as de-identified specimens. Human granulocytes were isolated using Percoll density fractionation as described and NOX2 activity was assessed in white polypropylene flat bottom 96 well plates following 15 min of preincubation at 37 °C with compounds or vehicle controls using 50 μM luminol as a chemiluminescence enhancer in an assay volume of 100 μl RPMI1640 with 1.1 × 10^5 cells/well in Varioskan Lux luminometer for 30 cycles of 1 s per well (approximately 1 h).

[4] = aqueous buffer, kinetic from dmso stock, read-out: Solubility

Row | Structure (SMILES) | Papp [1] | half-life [2] | IC50 (Bovine Xanthine Oxidase) | solubility [3, 4] | IC50 (NOX2) | Permeability(pH7.4) (PAMPA_Pion_Lipid 1e-6 cm/s) [1] | Rat_SD/Microsomes t1/2 (m) [2] | solubility [3]
1 | O=C1N(C2CC2)c2cc(-c3cn(C4CC4)c4nccc(N[S+](=O)([O-])c5ccn(C6CC6)n5)c34)ccc2C12CC2 [NCGC00650041, [O-][S+](=O)(NC1=C2C(=CN(C3CC3)C2=NC=C1)C4=CC5=C(C=C4)C6(CC6)C(=O)N5C7CC7)C8=NN(C=C8)C9CC9] | 615 ×10⁻⁶ cm/s | 6.2 min | 180 nM | 2 µg/mL (≈ 3.7 µM) | – | – | – | –
2 | Cn1ccc([S+](=O)([O-])Nc2ccnc3c2c(-c2ccc4c(c2)N(C2CC2)CC4)cn3CC2CCCCC2)n1 [NCGC00650102, CN1C=CC(=N1)[S+]([O-])(=O)NC2=C3C(=CN(CC4CCCCC4)C3=NC=C2)C5=CC6=C(CCN6C7CC7)C=C5] | 160 ×10⁻⁶ cm/s | – | 4070 ± 5430 nM | 5.3 µg/mL (≈ 9.99 µM) | 2050 nM | – | – | –
3 | CNC1CCc2ccc(-c3cn(C4CC4)c4nccc(N[S+](=O)([O-])c5ccn(C)n5)c34)cc21 (stereo not shown) [NCGC00650057, CNC1CCC2=C1C=C(C=C2)C3=CN(C4CC4)C5=NC=CC(N[S+]([O-])(=O)C6=NN(C)C=C6)=C35] | 4 ×10⁻⁶ cm/s | 17.9 min | 2290 ± 3230 nM | > 68 µg/mL | 1610 nM | – | – | –
4 | O=C1CCc2ccc(-c3cn(C4CC4)c4nccc(N[S+](=O)([O-])c5ccn(C6CC6)n5)c34)cc21 [NCGC00650069, [O-][S+](=O)(NC1=C2C(=CN(C3CC3)C2=NC=C1)C4=CC5=C(CCC5=O)C=C4)C6=NN(C=C6)C7CC7] | – | – | – | – | 1780 nM | 188.5 1e-6 cm/s | 16 m | 30 µg/mL (≈ 63.4 µM)
5 | Cn1ccc([S+](=O)([O-])Nc2ccnc3c2c(-c2ccc4c(c2)CCC4)cn3C2CC2)n1 [NCGC00650026, CN1C=CC(=N1)[S+]([O-])(=O)NC2=C3C(=CN(C4CC4)C3=NC=C2)C5=CC6=C(CCC6)C=C5] | 1420 ×10⁻⁶ cm/s | 0.9 min | > 20000 nM | 1 µg/mL (≈ 2.31 µM) | 3100 ± 2590 nM | – | – | –
6 | Cn1ccc([S+](=O)([O-])Nc2ccnc3c2c(-c2ccc4c(c2)N(C2CC2)C(=O)C42CC2)cn3C2CC2)n1 [NCGC00650040, CN1C=CC(=N1)[S+]([O-])(=O)NC2=C3C(=CN(C4CC4)C3=NC=C2)C5=CC6=C(C=C5)C7(CC7)C(=O)N6C8CC8] | 249 ×10⁻⁶ cm/s | > 30 min | 4210 ± 550 nM | 22.9 µg/mL (≈ 44.5 µM) | 15200 nM | – | – | –
7 | Cn1ccc([S+](=O)([O-])Nc2ccnc3c2c(-c2ccc4c(c2)C(N)CC4)cn3C2CC2)n1 (stereo not shown) [NCGC00650025, CN1C=CC(=N1)[S+]([O-])(=O)NC2=C3C(=CN(C4CC4)C3=NC=C2)C5=CC6=C(CCC6N)C=C5] | 13 ×10⁻⁶ cm/s | 14.5 min | > 20000 nM | 24 µg/mL (≈ 53.5 µM) | 447 nM | – | – | –
8 | Cn1ccc([S+](=O)([O-])Nc2ccnc3c2c(-c2ccc4c(c2)N(C(=O)OC(C)(C)C)CC4)cn3C2CC2)n1 [NCGC00650103, CN1C=CC(=N1)[S+]([O-])(=O)NC2=C3C(=CN(C4CC4)C3=NC=C2)C5=CC6=C(CCN6C(=O)OC(C)(C)C)C=C5] | – | 4.6 min | > 20000 nM | 8.2 µg/mL (≈ 15.3 µM) | 3930 nM | – | – | –
9 | CC(n1cc(-c2ccc3ccn(C)c3c2)c2c(N[S+](=O)([O-])c3ccn(C)n3)ccnc21)C(F)(F)F (stereo not shown) [NCGC00600714, CC(N1C=C(C2=C(N[S+]([O-])(=O)C3=NN(C)C=C3)C=CN=C12)C4=CC5=C(C=CN5C)C=C4)C(F)(F)F] | 479 ×10⁻⁶ cm/s | 7.7 min | 4700 nM | < 1 µg/mL | 328 nM | – | – | –
10 | CN1CCc2ccc(-c3cn(CC(F)(F)F)c4nccc(N[S+](=O)([O-])c5ccn(C)n5)c34)cc21 [NCGC00600903, CN1C=CC(=N1)[S+]([O-])(=O)NC2=C3C(=CN(CC(F)(F)F)C3=NC=C2)C4=CC5=C(CCN5C)C=C4] | 53.6 ×10⁻⁶ cm/s | 3.3 min | 56 ± 79 nM | 12.2 µg/mL (≈ 24.9 µM) | 1680 ± 2070 nM | – | – | –
11 | Cn1ccc([S+](=O)([O-])Nc2ccnc3c2c(-c2ccc4c(c2)C(=O)CC4)cn3C2CC2)n1 [NCGC00650061, CN1C=CC(=N1)[S+]([O-])(=O)NC2=C3C(=CN(C4CC4)C3=NC=C2)C5=CC6=C(CCC6=O)C=C5] | 72.8 ×10⁻⁶ cm/s | 11.8 min | 2340 ± 2320 nM | > 66 µg/mL | 4250 nM | – | – | –
12 | O=[S+]([O-])(Nc1ccnc2c1c(-c1ccc3c(c1)N(C1CC1)CC31CC1)cn2C1CC1)c1ccn(C2CC2)n1 [NCGC00650101, [O-][S+](=O)(NC1=C2C(=CN(C3CC3)C2=NC=C1)C4=CC5=C(C=C4)C6(CC6)CN5C7CC7)C8=NN(C=C8)C9CC9] | 81.8 ×10⁻⁶ cm/s | 1.2 min | 1220 ± 320 nM | 36.8 µg/mL (≈ 69.9 µM) | 11600 ± 8720 nM | – | – | –
13 | Cn1ccc([S+](=O)([O-])Nc2ccnc3c2c(-c2ccc4c(c2)C(=O)CC4)cn3C2CC2)n1 [NCGC00650062, CN1C=CC(=N1)[S+]([O-])(=O)NC2=C3C(=CN(C4CC4)C3=NC=C2)C5=CC6=C(CCC6=O)C=C5] | – | – | 3110 nM | – | > 20000 nM | 88.1 1e-6 cm/s | 17.3 m | 38.6 µg/mL (≈ 86.3 µM)
14 | O=[S+]([O-])(Nc1ccnc2c1c(-c1ccc3c(c1)C(O)CC3)cn2C1CC1)c1ccn(C2CC2)n1 (stereo not shown) [NCGC00650064, OC1CCC2=C1C=C(C=C2)C3=CN(C4CC4)C5=NC=CC(N[S+]([O-])(=O)C6=NN(C=C6)C7CC7)=C35] | 386 ×10⁻⁶ cm/s | 6.9 min | > 20000 nM | 35.9 µg/mL (≈ 75.5 µM) | – | – | – | –
15 | CN1CCc2ccc(-c3cn(C4CC4)c4nccc(N[S+](=O)([O-])c5ccn(C)n5)c34)cc21 [NCGC00600897, CN1C=CC(=N1)[S+]([O-])(=O)NC2=C3C(=CN(C4CC4)C3=NC=C2)C5=CC6=C(CCN6C)C=C5] | 171 ×10⁻⁶ cm/s | 1.7 min | 1380 ± 1160 nM | > 66 µg/mL | – | – | – | –
16 | Cn1ccc([S+](=O)([O-])Nc2ccnc3c2c(-c2ccc4ccn(C)c4c2)cn3C2CC2)n1 [NCGC00650045, CN1C=CC(=N1)[S+]([O-])(=O)NC2=C3C(=CN(C4CC4)C3=NC=C2)C5=CC6=C(C=CN6C)C=C5] | – | 1 min | – | 2.2 µg/mL (≈ 4.93 µM) | > 20000 nM | – | – | –
17 | O=C1CCc2ccc(-c3cn(C4CC4)c4nccc(N[S+](=O)([O-])c5ccn(C6CC6)n5)c34)cc21 [NCGC00650070, [O-][S+](=O)(NC1=C2C(=CN(C3CC3)C2=NC=C1)C4=CC5=C(CCC5=O)C=C4)C6=NN(C=C6)C7CC7] | 256 ×10⁻⁶ cm/s | 13.2 min | – | 38.5 µg/mL (≈ 81.3 µM) | 966 nM | – | – | –
18 | CC(C)n1cc(-c2ccc3c(c2)N(C)CC3)c2c(N[S+](=O)([O-])c3ccn(C)n3)ccnc21 [NCGC00507962, CC(C)[N]1C=C(C2=CC3=C(CCN3C)C=C2)C4=C(N[S+]([O-])(=O)C5=N[N](C)C=C5)C=CN=C14] | 1030 ×10⁻⁶ cm/s | 1.1 min | – | 36.7 µg/mL (≈ 81.5 µM) | – | – | – | –
